Experimental data taken from patent US20080248134A1, “Oral compositions, use and combinations of N-[2-(dimethylamino)ethyl]-2,6 dimethyl-1-oxo-1,2-dihydrobenzo[b]-1,6-naphthyridine-4-carboxamide and closely related analogues thereof” (Auckland Uniservices Limited, priority 2005, published 2008).
pIC50: −log10 of the molar value.

Columns and labels:
HCT116p53+ = experiment: In vitro cell proliferation assay, continuous drug exposure; assay type: cell-based; conditions: Homo sapiens, continuous drug exposure 3-5 days
From the text: (§1) The results with the JLA and JLD lines, which have reduced topoisomerase II content as compared to the parental Jurkat line, indicate that the IC50 value of the compound is increased with decreased topoisomerase content. This is also the case for etoposide, amsacrine, DACA and doxorubicin.

HCT116p53− = experiment: as above; assay type: cell-based; conditions: Homo sapiens, continuous drug exposure 3-5 days
From the text: as §1

JLA = experiment: as above; assay type: cell-based; conditions: Homo sapiens; JLA (reduced topoisomerase II), continuous drug exposure 3-5 days
From the text: as §1

JLD = experiment: as above; assay type: cell-based; conditions: Homo sapiens; JLD (reduced topoisomerase II), continuous drug exposure 3-5 days
From the text: as §1

Jurkat = experiment: as above; assay type: cell-based; conditions: Homo sapiens, continuous drug exposure 3-5 days
From the text: as §1

AuxB1 = experiment: In vitro susceptibility to multidrug resistance, continuous exposure IC50; assay type: cell-based, Chinese Hamster; conditions: Cricetulus griseus, AuxB1 (no multidrug resistance)
Experimental: (§2) Multidrug resistance mediated by p-glycoprotein and related transport proteins is an important means by which cancer cells evade cytotoxic drugs. […] IC50 values of several drugs were measured in continuous exposure assays in these two cell lines. The resistance factor was calculated as the ratio of these values. High values indicate high susceptibility to resistance.

CHrC5 = experiment: as above; assay type: cell-based, Chinese Hamster; conditions: for pIC50: Cricetulus griseus, CHrC5 (multidrug resistant), continuous exposure; for Resistance factor: ratio of IC50 values in CHrC5 and AuxB1
Experimental: as §2

[1] = data taken from the literature; cited from earlier work
[2] = tested on: p53, p21 and Fas in HCT116 (TP53 wild type); experiment: Induction of the p53 pathway, western blotting; assay type: cell-based, human
From the text: The p53 protein is thought to play a major role in the induction of apoptosis in tumour cells (Levine A J. p53, the cellular gatekeeper for growth and division. Cell. 1997. 88(3):323-331). The p53 protein is a transcriptional activator, which acts in response to DNA damage and other stress pathways, and increases expression of proteins such as Fas and p21^WAF1. […] Products were detected by western blotting.

[3] = tested on: survivin in HCT116 (TP53 wild type); experiment: Inhibition of survivin production, western blotting; assay type: cell-based, human; conditions: various concentrations, 24 hours
Experimental: Survivin is a protein that is expressed selectively in many types of cancer cells and which is known to be associated with resistance to apoptosis (Zaffaroni N and Daidone M G. Survivin expression and resistance to anticancer treatments: perspectives for new therapeutic interventions. Drug Resistance Updates: Reviews and Commentaries in Antimicrobial and Anticancer Chemotherapy. 2002 5(2):65-72). […] Extracts were prepared, proteins were separated by electrophoresis and survivin expression was determined by western blotting.

Jurkat LA = experiment: Human tumour xenograft; assay type: in vivo; conditions: Leukaemia, comparison drug
Experimental: (§3) The compound of Formula II was evaluated in a number of xenografts using cell lines derived from cervical, endometrial, lung and colon carcinomas, leukaemia and melanoma (Table 3). These studies indicate that the compound according to the present invention has significant activity in xenografts.

NZEN1 = experiment: Human tumour xenograft; assay type: in vivo; conditions: NZEN1, Endometrium; comparison drug
Experimental: as §3

NZC1 = experiment: Human tumour xenograft; assay type: in vivo; conditions: NZC1, Cervix; comparison drug
Experimental: as §3

NZM10 = experiment: Human tumour xenograft; assay type: in vivo; conditions: NZM10, Melanoma; comparison drug
Experimental: as §3

NZM3 = experiment: Human tumour xenograft; assay type: in vivo; conditions: NZM3, Melanoma; comparison drug
Experimental: as §3

NZM4 = experiment: Human tumour xenograft; assay type: in vivo; conditions: NZM4, Melanoma; comparison drug
Experimental: as §3

NZMp2 = experiment: Human tumour xenograft; assay type: in vivo; conditions: NZMp2, Melanoma; comparison drug
Experimental: as §3

Structure (SMILES)	pIC50 (HCT116p53+)	pIC50 (HCT116p53−)	pIC50 (JLA)	pIC50 (JLD)	pIC50 (Jurkat)	pIC50 (AuxB1)	pIC50 (CHrC5)	Resistance factor (CHrC5)	accumulation in tumour tissue versus liver tissue and plasma [1]	induction of p53, p21 and Fas ([2]; 24 hours at higher cell density (approaching confluence))	induction of p53, p21 and Fas ([2]; 24 hours exposure)	induction of p53, p21 and Fas ([2]; earlier times (4-10 hours))	survivin expression [3]	Comparison (Jurkat LA)	Comparison (NZEN1)	Comparison (NZC1)	Comparison (NZM10)	Comparison (NZM3)	Comparison (NZM4)	Comparison (NZMp2)
COc1cc(NS(C)(=O)=O)ccc1Nc1c2ccccc2nc2ccccc12 [Amsacrine]	7.60	7.28	5.51	5.57	7.43	7.72	6.96	5.6	accumulate more in the liver tissue than tumour tissue	–	–	–	–	–	–	–	–	–	–	–
CN(C)CCNC(=O)c1cccc2cc3ccccc3nc12.Cl.Cl [DACA, N-[2-(dimethylamino)ethyl]acridine-4-carboxamide dihydrochloride]	6.44	6.29	5.96	5.60	6.24	6.90	6.67	1.6	relatively evenly spread throughout each tissue and plasma	–	–	–	–	–	–	–	–	–	–	–
COc1cccc2c1C(=O)c1c(O)c3c(c(O)c1C2=O)C[C@@](O)(C(=O)CO)C[C@@H]3O[C@H]1C[C@H](N)[C@H](O)[C@H](C)O1 [Doxorubicin]	7.98	7.68	7.38	6.57	8.02	7.28	5.21	114	–	did not	induced p53, p21 and Fas in dose-dependent fashions	did not	only small effects	inactive	inactive	–	–	–	–	–
COc1cc([C@@H]2c3cc4c(cc3[C@@H](O[C@@H]3O[C@@H]5CO[C@@H](C)O[C@H]5[C@H](O)[C@H]3O)[C@H]3COC(=O)[C@H]23)OCO4)cc(OC)c1O [Etoposide]	6.68	6.41	5.68	4.84	6.80	5.92	5.07	7.2	–	–	–	–	only small effects	–	–	active	active	active	active	active
CNC(=O)c1cccc2c(Nc3ccc(NS(C)(=O)=O)cc3OC)c3cccc(C)c3nc12 [asulacrine, 9-((2-methoxy-4-[(methylsulfonyl)-amino]phenyl)amino)-N,5-dimethyl-4-acridinecarboxamide]	–	–	–	–	–	–	–	–	accumulate more in the liver tissue than tumour tissue	–	–	–	–	–	–	–	–	–	–	–
